Legend:
[1] = Chemical inhibition assay, glucuronidation of PI-103 in pooled HLM; type: in vitro ADME, human
[2] = Chemical inhibition assay, phase I metabolism of PI-103 in pooled HLM; type: in vitro ADME, human; settings: inhibitor 0.1 μM (CYP1A2 inhibitor)

C[C@H](CCC(=O)O)[C@H]1CC[C@H]2[C@@H]3[C@H](O)C[C@@H]4C[C@H](O)CC[C@]4(C)[C@H]3CC[C@]12C [CDCA]
activity of PI-103 glucuronidation in HLM ([1]; inhibitor 20 μM): no changes

CN(C)CCC=C1c2ccccc2CCc2ccccc21 [amitriptyline]
activity of PI-103 glucuronidation in HLM ([1]; inhibitor 10 μM): no changes

C[C@]12CC[C@@H](O)C[C@@H]1CC[C@@H]1[C@@H]2CC[C@]2(C)C(=O)CC[C@@H]12 [androsterone]
activity of PI-103 glucuronidation in HLM ([1]; inhibitor 10 μM): 69.36 % of the control values

Cc1cn(-c2cc(NC(=O)c3ccc(C)c(Nc4nccc(-c5cccnc5)n4)c3)cc(C(F)(F)F)c2)cn1 [nilotinib]
activity of PI-103 glucuronidation in HLM ([1]; inhibitor 10 μM): 82.37 % of the control values

O=c1cc(-c2ccccc2)oc2c1ccc1ccccc12 [α-naphthoflavone]
remaining activity of PI-103 phase I metabolism in HLM [2]: 53.37 % of the control values

Source: PMC9050161 (RSC Advances, 2020)
